Laboratory results as given in patent US7692030B2, “Conjugates of artemisinin-related endoperoxides and hydrazone derivatives for the treatment of cancer” (University of Washington, priority 2006, dated 2010).

What was measured:
Experiment in all cases: NCI DTP human tumor cell line screen (SRB)
Assay type in all cases: cell-based
EKVX = settings: Non-Small Cell Lung Cancer, 10 μM, 48 h
Description: (§1) Representative compounds of the invention, prepared as described in EXAMPLES 1-6, were submitted to the Developmental Therapeutics Program of the United States National Cancer Institute (NCl) to screen for anti-cancer activity. The anti-cancer activities of the six compounds were tested against approximately 60 human tumor cell lines representing leukemia, melanoma, and cancers of the lung, colon, breast, ovary, kidney, prostate, and brain. The following screening methodology was provided by the NCl. […] For experimental screens, cells were inoculated into 96 well microtiter plates in 100 μL at plating densities ranging from 5,000 to 40,000 cells/well depending on the doubling time of individual cell lines. After cell inoculation, the microtiter plates were incubated at 37° C., 5% carbon dioxide, 95% air and 100% relative humidity for 24 hours prior to addition of the compounds. After 24 hours of incubation, two plates of each cell line were fixed in situ with trichloroacetic acid (TCA) to represent a measurement of the cell population for each cell line at the time of compound addition (Tz). The compounds were solubilized in dimethyl sulfoxide at 400-fold the desired final maximum test concentration and stored frozen prior to use. At the time of drug addition, frozen aliquots of the compounds thawed and diluted with complete medium containing 50 μg/ml gentamicin. Aliquots of 100 μl of these different compound dilutions were added to the appropriate microtiter wells already containing 100 μl of medium, resulting in the required final compound concentration of 10 μM. Following compound addition, the plates were incubated for an additional 48 h at 37° C., 5% carbon dioxide, 95% air, and 100% relative humidity. For adherent cells, the assay was terminated by the addition of cold TCA. Cells were fixed in situ by the gentle addition of 50 μl of cold 50% (w/v) TCA (final concentration, 10% TCA) and incubated for 60 minutes at 4° C. The supernatant was discarded, and the plates were washed five times with tap water and air dried. Sulforhodamine B (SRB) solution (100 μl) at 0.4% (w/v) in 1% acetic acid was added to each well, and plates were incubated for 10 minutes at room temperature. After staining, unbound dye was removed by washing five times with 1% acetic acid and the plates were air dried. Bound stain was subsequently solubilized with 10 mM trizma base, and the absorbance was read on an automated plate reader at a wavelength of 515 nm. For suspension cells, the methodology was the same except that the assay was terminated by fixing settled cells at the bottom of the wells by gently adding 50 μl of 80% TCA (final concentration, 16% TCA). Using the three absorbance measurements [time zero, (Tz), control growth, (C), and test growth in the presence of compound (Ti)], the percentage growth was calculated at each of the compound concentrations levels. Percentage growth inhibition was calculated with the following algorithms: [(Ti−Tz)/(C−Tz)]×100 for concentrations for which Ti>/=Tz [(Ti−Tz)/Tz]×100 for concentrations for which Ti<Tz The results of the NCl in vitro anticancer screening with six compounds against various human tumor cell lines are presented below in Tables 2-7. […] The growth percent mean, delta, and range for each compound are given below.

HCC-2998 = settings: Colon Cancer, 10 μM, 48 h
Description: as §1

HCT-15 = settings: Colon Cancer, 10 μM, 48 h
Description: as §1

HOP-92 = settings: Non-Small Cell Lung Cancer, 10 μM, 48 h
Description: as §1

HT29 = settings: Colon Cancer, 10 μM, 48 h
Description: as §1

M14 = settings: Melanoma, 10 μM, 48 h
Description: as §1

MDA-MB-435 = settings: Breast Cancer, 10 μM, 48 h
Description: as §1

NCI-H522 = settings: Non-Small Cell Lung Cancer, 10 μM, 48 h
Description: as §1

NCI/ADR-RES = settings: Breast Cancer, 10 μM, 48 h
Description: as §1

OVCAR-4 = settings: Ovarian Cancer, 10 μM, 48 h
Description: as §1

OVCAR-8 = settings: Ovarian Cancer, 10 μM, 48 h
Description: as §1

PC-3 = settings: Prostate Cancer, 10 μM, 48 h
Description: as §1

RPMI-8226 = settings: Leukemia, 10 μM, 48 h
Description: as §1

SF-268 = settings: CNS Cancer, 10 μM, 48 h
Description: as §1

SK-MEL-28 = settings: Melanoma, 10 μM, 48 h
Description: as §1

SK-MEL-5 = settings: Melanoma, 10 μM, 48 h
Description: as §1

SN12C = settings: Renal Cancer, 10 μM, 48 h
Description: as §1

SNB-19 = settings: CNS Cancer, 10 μM, 48 h
Description: as §1

SNB-75 = settings: CNS Cancer, 10 μM, 48 h
Description: as §1

SW-620 = settings: Colon Cancer, 10 μM, 48 h
Description: as §1

TK-10 = settings: Renal Cancer, 10 μM, 48 h
Description: as §1

UACC-257 = settings: Melanoma, 10 μM, 48 h
Description: as §1

KM12 = settings: Colon Cancer, 10 μM, 48 h
Description: as §1

MALME-3M = settings: Melanoma, 10 μM, 48 h
Description: as §1

NCI-H322M = settings: Non-Small Cell Lung Cancer, 10 μM, 48 h
Description: as §1

SMILES	Growth Percent (EKVX)	Growth Percent (HCC-2998)	Growth Percent (HCT-15)	Growth Percent (HOP-92)	Growth Percent (HT29)	Growth Percent (MDA-MB-435)	Growth Percent (NCI/ADR-RES)	Growth Percent (OVCAR-4)	Growth Percent (OVCAR-8)	Growth Percent (PC-3)	Growth Percent (RPMI-8226)	Growth Percent (SF-268)	Growth Percent (SK-MEL-28)	Growth Percent (SK-MEL-5)	Growth Percent (SN12C)	Growth Percent (SNB-19)	Growth Percent (SNB-75)	Growth Percent (SW-620)	Growth Percent (TK-10)	Growth Percent (UACC-257)	also measured
CC1CCC2C(C)C(OCc3ccc(C(=O)NN=Cc4ccccc4O)o3)OC3OC4(C)CCC1C32OO4 (stereo not shown) [ART-Furan-Sal, N′-(2-hydroxybenzylidene)-5-(dihydroxyartemisinin-methyl)-furan-2-carbohydrazide]	25.37%	5.37%	30.86%	37.02%	22.40%	25.70%	11.14%	12.86%	17.07%	28.01%	13.00%	−0.43%	16.46%	−46.62%	27.18%	25.11%	−17.31%	13.95%	40.77%	9.72%	Growth Percent (M14): −48.54%; Growth Percent (NCI-H522): −10.76%
CC1CCC2C(C)C(OCc3ccc(C(=O)NN=Cc4ccccc4)cc3)OC3OC4(C)CCC1C32OO4 (stereo not shown) [ART-Phe-Bz, N′-(benzylidene)-4-(dihydroxyartemisinin-methyl)-phenyl carbohydrazide]	16.45%	22.05%	16.27%	2.94%	18.46%	12.48%	19.93%	18.29%	26.65%	12.32%	1.50%	35.30%	45.74%	2.01%	23.38%	51.29%	0.39%	19.48%	19.78%	25.96%	Growth Percent (KM12): 10.19%; Growth Percent (M14): 34.29%; Growth Percent (MALME-3M): 32.27%; Growth Percent (NCI-H322M): 53.20%; Growth Percent (NCI-H522): −9.33%
Cc1ncc(CO)c(C=NNC(=O)c2ccc(COC3OC4OC5(C)CCC6C(C)CCC(C3C)C46OO5)cc2)c1O (stereo not shown) [ART-Phe-Pyridoxal, N′-(5-hydroxy-3-hydroxymethyl-2-methyl-4-pyridylidene)-4-(dihydroxyartemisinin-methyl)-phenyl carbohydrazide]	12.34%	27.38%	15.22%	20.97%	32.72%	18.74%	44.16%	21.42%	31.40%	31.12%	9.56%	1.39%	−7.02%	−43.83%	16.82%	4.26%	42.44%	14.32%	6.35%	1.40%	Growth Percent (KM12): 17.87%; Growth Percent (MALME-3M): −17.79%; Growth Percent (NCI-H322M): 14.34%; Growth Percent (NCI-H522): 38.92%
CC1CCC2C(C)C(OCc3ccc(C(=O)NN=Cc4ccccc4O)cc3)OC3OC4(C)CCC1C32OO4 (stereo not shown) [ART-Phe-Sal, N′-(2-hydroxybenzylidene)-4-(dihydroxyartemisinin-methyl)-phenyl carbohydrazide]	28.62%	37.90%	32.15%	56.27%	22.93%	15.04%	21.55%	17.87%	24.17%	31.46%	22.87%	10.84%	22.75%	−56.71%	25.25%	27.53%	−16.75%	30.24%	20.96%	22.90%	Growth Percent (KM12): 23.72%; Growth Percent (M14): −37.45%; Growth Percent (MALME-3M): 16.70%; Growth Percent (NCI-H322M): 23.76%; Growth Percent (NCI-H522): 5.74%
CC1CCC2C(C)C(OCc3ccc(C(=O)NN=Cc4ccccc4O)nc3)OC3OC4(C)CCC1C32OO4 (stereo not shown) [ART-Pyr-Sal, N′-(2-hydroxybenzylidene)-5-(dihydroxyartemisinin-methyl)-2-pyridine carbohydrazide]	32.52%	4.91%	21.89%	30.70%	29.61%	30.18%	6.72%	23.04%	8.81%	21.62%	13.76%	12.40%	29.92%	−18.98%	22.81%	20.71%	−6.97%	26.43%	31.03%	6.22%	Growth Percent (KM12): 29.31%; Growth Percent (M14): −9.91%; Growth Percent (MALME-3M): 8.61%; Growth Percent (NCI-H322M): 31.89%; Growth Percent (NCI-H522): 10.19%
CC1CCC2C(C)C(OCCn3cc(C(=O)NN=Cc4ccccc4O)nn3)OC3OC4(C)CCC1C32OO4 (stereo not shown) [ART-Triazole-Sal, N′-(2-hydroxybenzylidene)-1-(dihydroxyartemisinin-ethyl)-1H-1,2,3-triazole-4-carbohydrazide]	35.04%	25.98%	34.01%	44.42%	31.44%	35.26%	15.88%	15.89%	25.82%	38.28%	18.69%	21.15%	27.59%	12.45%	45.26%	45.73%	−8.40%	31.03%	38.15%	19.39%	Growth Percent (KM12): 29.83%; Growth Percent (M14): 3.07%; Growth Percent (MALME-3M): 42.33%; Growth Percent (NCI-H322M): 27.06%
